The term MIC denotes the lowest concentration found to suppress growth.

≈ marks a conversion by molar mass, not a printed value. Where two headings read alike, the source gives them in different places.

For this test, the system named is extended bacterial panel. Briefly: MIC against an extended bacterial panel (Table 15). The class given is cell-based.

`CC(=O)NC[C@H]1CN(c2ccc(N3CCOCC3)c(F)c2)C(=O)O1` [Linezolid]: the MIC (Staphylococcus aureus, ATCC 700699 / MRSA / VISA, Staphylococcus aureus Mu50, ATCC 700699, MRSA/VISA, read-out: MIC) is 2 µg/mL (≈ 5.93 µM); the minimal inhibitory concentration (MIC) (Staphylococcus aureus, MRSA / NRS 3 / VISA, Staphylococcus aureus NRS3, MRSA/VISA, read-out: MIC) worked out at 1 µg/mL (≈ 2.96 µM); the MIC (Staphylococcus aureus, MRSA / NRS 17 / VISA, Staphylococcus aureus NRS17, MRSA/VISA, read-out: MIC) worked out at 2 µg/mL (≈ 5.93 µM); the MIC (Staphylococcus aureus, MRSA / NRS 22 / USA600 / VISA, Staphylococcus aureus NRS22, USA600 MRSA/VISA, read-out: MIC) was found to be 4 µg/mL (≈ 11.9 µM); the MIC (Staphylococcus aureus, MRSA / NRS 56 / VISA, Staphylococcus aureus NRS56, MRSA/VISA, read-out: MIC) amounted to 2 µg/mL (≈ 5.93 µM); the MIC (Staphylococcus aureus, MRSA / NRS 100, Staphylococcus aureus COL, NRS100, MRSA, read-out: MIC) came out at 2 µg/mL (≈ 5.93 µM). The minimum inhibitory concentration (MIC) runs as follows: (Staphylococcus aureus, MRSA / NRS 269, Staphylococcus aureus NRS269, MRSA TGC-NS, read-out: MIC) 2 µg/mL (≈ 5.93 µM); (Staphylococcus aureus, MRSA / NRS 402 / VISA, Staphylococcus aureus NRS402, MRSA/VISA DAP-NS) 1 µg/mL (≈ 2.96 µM); (Staphylococcus aureus, MRSA / VISA, Staphylococcus aureus FDA-CDC AR-BANK# 0215, MRSA/VISA, read-out: MIC) 4 µg/mL (≈ 11.9 µM); (Staphylococcus aureus, MRSA / VISA, Staphylococcus aureus FDA-CDC AR-BANK# 0216, MRSA/VISA, read-out: MIC) 2 µg/mL (≈ 5.93 µM); (Staphylococcus aureus, MRSA / VISA, Staphylococcus aureus FDA-CDC AR-BANK# 0217, MRSA/VISA, read-out: MIC) 1 µg/mL (≈ 2.96 µM); (Staphylococcus aureus, MRSA / VISA, Staphylococcus aureus FDA-CDC AR-BANK# 0218, MRSA/VISA Mupirocin-R, read-out: MIC) 1 µg/mL (≈ 2.96 µM). The MIC is, setting by setting: (Staphylococcus aureus, MRSA / VISA, Staphylococcus aureus FDA-CDC AR-BANK# 0219, MRSA/VISA, read-out: MIC) 2 µg/mL (≈ 5.93 µM); (Staphylococcus aureus, MRSA / VISA, Staphylococcus aureus FDA-CDC AR-BANK# 0220, MRSA/VISA, read-out: MIC) 2 µg/mL (≈ 5.93 µM); (Staphylococcus aureus, MRSA / VISA, Staphylococcus aureus FDA-CDC AR-BANK# 0221, MRSA/VISA, read-out: MIC) 2 µg/mL (≈ 5.93 µM); (Staphylococcus aureus, MRSA / VISA, Staphylococcus aureus FDA-CDC AR-BANK# 0223, MRSA/VISA, read-out: MIC) 2 µg/mL (≈ 5.93 µM); (Staphylococcus aureus, MRSA / VISA, Staphylococcus aureus FDA-CDC AR-BANK# 0224, MRSA/VISA Mupirocin-R, read-out: MIC) 4 µg/mL (≈ 11.9 µM); (Staphylococcus aureus, MRSA / VISA, Staphylococcus aureus FDA-CDC AR-BANK# 0225, MRSA/VISA, read-out: MIC) 2 µg/mL (≈ 5.93 µM). In addition, the MIC reads like this: (Staphylococcus aureus, MRSA / VISA, Staphylococcus aureus FDA-CDC AR-BANK# 0226, MRSA/VISA, read-out: MIC) 2 µg/mL (≈ 5.93 µM); (Staphylococcus aureus, MRSA / VISA, Staphylococcus aureus FDA-CDC AR-BANK# 0227, MRSA/VISA, read-out: MIC) 4 µg/mL (≈ 11.9 µM); (Staphylococcus aureus, MRSA / VISA, Staphylococcus aureus FDA-CDC AR-BANK# 0228, MRSA/VISA Mupirocin-R, read-out: MIC) 2 µg/mL (≈ 5.93 µM); (Staphylococcus aureus, MRSA / VRSA, Staphylococcus aureus VRS1, VanA MRSA/VRSA, read-out: MIC) 2 µg/mL (≈ 5.93 µM); (Staphylococcus aureus, MRSA / VRSA, Staphylococcus aureus VRS2, VanA MRSA/VRSA, read-out: MIC) 2 µg/mL (≈ 5.93 µM); (Staphylococcus aureus, MRSA / VRSA, Staphylococcus aureus VRS3a, VanA MRSA/VRSA, read-out: MIC) 4 µg/mL (≈ 11.9 µM). Besides, the minimum inhibitory concentration (MIC) (Staphylococcus aureus, MRSA / VRSA, Staphylococcus aureus VRS11b, VanA MRSA/VRSA, read-out: MIC) is 2 µg/mL (≈ 5.93 µM); the minimal inhibitory concentration (MIC) (Staphylococcus aureus, MRSA, Staphylococcus aureus ECL 2963666, MRSA DAP-NS, read-out: MIC) came out at 1 µg/mL (≈ 2.96 µM); the MIC (Staphylococcus aureus, NRS 12 / VISA, Staphylococcus aureus NRS12, VISA, read-out: MIC) was found to be 4 µg/mL (≈ 11.9 µM); the minimum inhibitory concentration (MIC) (Staphylococcus aureus, VISA, Staphylococcus aureus FDA-CDC AR-BANK# 0222, VISA, read-out: MIC) amounted to 2 µg/mL (≈ 5.93 µM); the MIC (Staphylococcus aureus, VRSA, Staphylococcus aureus ECL 2963646, VRSA, read-out: MIC) was 2 µg/mL (≈ 5.93 µM); the MIC (Staphylococcus epidermidis, NRS7, Staphylococcus epidermidis NRS7, VISE, read-out: MIC) was found to be 4 µg/mL (≈ 11.9 µM). For the same molecule, the MIC is, setting by setting: (Staphylococcus epidermidis, NRS8, Staphylococcus epidermidis NRS8, VISE, read-out: MIC) 2 µg/mL (≈ 5.93 µM); (Staphylococcus epidermidis, NRS60, Staphylococcus epidermidis NRS60, VISE, read-out: MIC) 2 µg/mL (≈ 5.93 µM).
In turn, `CN(C)c1cc(NC(=O)CNC(C)(C)C)c(O)c2c1C[C@H]1C[C@H]3[C@H](N(C)C)C(O)=C(C(N)=O)C(=O)[C@@]3(O)C(O)=C1C2=O` [Tigecycline, tigecycline, reference compound] registered an MIC (Enterococcus faecalis, ATCC29212, Enterococcus faecalis ATCC 29212) of 0.125 µg/mL (≈ 0.213 µM); an MIC (Enterococcus faecalis, ATCC51299, Enterococcus faecalis ATCC 51299, VanB) of 0.0625 µg/mL (≈ 0.107 µM); an MIC (Enterococcus faecalis, ATCC51575, Enterococcus faecalis ATCC 51575, VanB) of 0.125 µg/mL (≈ 0.213 µM); an MIC (Enterococcus faecalis, ATCC700802, Enterococcus faecalis ATCC 700802, VanB) of 0.125 µg/mL (≈ 0.213 µM); a minimum inhibitory concentration (MIC) (Enterococcus faecalis, CCUG47775, Enterococcus faecalis CCUG 47775, Van A) of 0.125 µg/mL (≈ 0.213 µM); an MIC (Enterococcus faecium, CCUG59167, Enterococcus faecium TUH44-29, CCUG 59167, Van A) of 0.0625 µg/mL (≈ 0.107 µM). The minimal inhibitory concentration (MIC) (Enterococcus gallinarum, ATCC 49608 / GALLINARUM, Enterococcus gallinarum ATCC 49608, VanC) was 0.125 µg/mL (≈ 0.213 µM).

Values taken from patent publication US11746116B2, “Antibiotic resistance breakers” (KING'S COLLEGE LONDON, priority 2017, dated 2023).
